Columns and labels:
[1] = test system: patients with hypercholesterolemia at high CV risk not adequately controlled with atorvastatin (20 mg or 40 mg); assay: Example 2: randomized, double-blind trial, lipid efficacy of mAb316P add-on to atorvastatin vs EZE add-on, atorvastatin dose doubling or switch to rosuvastatin; type: in vivo, human; conditions: for reduced LDL-C levels by: week 24, add-on mAb316P
Protocol: The present study was a randomized, double-blind, active-comparator, parallel-group study in patients at high CV risk with non-FH or heFH who are not adequately controlled with atorvastatin (20 mg or 40 mg) with or without other lipid-modifying therapy (LMT) (excluding EZE). The study design is illustrated in FIG. 1. Patients who entered the study were taking either atorvastatin 20 mg or atorvastatin 40 mg. The former patients were randomized to 1 of 3 treatment arms (arms 1 to 3); the latter patients were randomized to 1 of 4 treatment arms (arms 4 to 7). The treatment arms are as follows:
(1) mAb316P+atorvastatin 20 mg+placebo-EZE; (2) Placebo-mAb316P+atorvastatin 40 mg+placebo-EZE; and (3) Placebo-mAb316P+atorvastatin 20 mg+EZE 10 mg.
(4) mAb316P+atorvastatin 40 mg+placebo-EZE; (5) Placebo-mAb316P+atorvastatin 80 mg+placebo-EZE; (6). Placebo-mAb316P+rosuvastatin 40 mg+placebo-EZE; and (7) Placebo-mAb316P+atorvastatin 40 mg+EZE 10 mg.
(B) a double-blind treatment period of 24 weeks. Each patient received a SC injection Q2W (mAb316P or placebo-mAb316P) and was administered (or instructed to take) 2 oral blinded medications daily (a statin [atorvastatin or rosuvastatin] and EZE or placebo-EZE). The first injection of mAb316P or placebo-mAb316P was administered at the clinical site on day 1, after study assessments were completed, and as soon as possible after the patient was randomized into the study. The patient/caregiver administered subsequent injections outside of the clinic according to the dosing schedule. On days where the clinic study visit coincided with dosing, the dose of study drugs (injectable and oral) were administered after all study assessments had been performed and all laboratory samples collected. The last dose of mAb316P or placebo-mAb316P was administered at week 22. The last dose of daily oral study drugs was administered at week 24. At week 12, based on their baseline CV risk, certain patients randomized to mAb316P in a blinded manner, had their dose increased as follows:
Each patient received a subcutaneous (SC) injection once every two weeks (Q2W) (mAb316P or placebo-mAb316P) and took 2 oral blinded medications daily (a statin [atorvastatin or rosuvastatin] and EZE or placebo-EZE).
The injectable study treatment was a single SC injection of 1 mL for a 75 mg or 150 mg dose of mAb316P or placebo-mAb316P provided in an auto-injector, administered in the abdomen, thigh, or outer area of the upper arm. The first injection of study drug was administered at the clinical site, as soon as possible after the patient was randomized into the study. The patient was monitored at the clinical site for at least 30 minutes following the first injection. The patient/caregiver administered subsequent injections outside of the clinic, according to the dosing schedule. On days where the clinic study visit coincided with dosing, the dose of study drug was administered after all study assessments have been performed and all laboratory samples collected.
The dose of mAb316P was increased, in a blinded manner, from 75 mg to 150 mg SC Q2W, starting at week 12, based on baseline CV risk in the following circumstances:
The primary efficacy endpoint was the percent change in calculated LDL-C from baseline to week 24, which is defined as: 100× (calculated LDL-C value at week 24−calculated LDL-C value at baseline)/calculated LDL-C value at baseline. The baseline calculated LDL-C value was the last LDL-C level obtained before the first double-blind study drug injection. The calculated LDL-C at week 24 will be the LDL-C level obtained within the week 24 analysis window and during the main efficacy period. The main efficacy period was defined as the time from the first double-blind study drug injection up to 21 days after the last double-blind study drug injection or up to the upper limit of the week 24 analysis window, whichever comes first.
Total-C, HDL-C, TG, ApoB, ApoA-1, and Lp (a) were directly measured by a central laboratory. […]

[2] = test system: patients with hypercholesterolemia at high CV risk not adequately controlled with rosuvastatin (10 mg or 20 mg); assay: Example 3: safety, treatment-emergent adverse events in pooled treatment groups; conditions: mAb316P group
[3] = ITT Population, Comparison 5: mAb316P + atorva 40 mg arm vs. EZE + atorva 40 mg arm
[4] = mITT Population, Comparison 1: mAb316P + atorva 20 mg arm vs. atorva 40 mg arm
[5] = mITT Population, Comparison 2: mAb316P + atorva 20 mg arm vs. EZE + atorva 20 mg arm
[6] = mITT Population, Comparison 3: mAb316P + atorva 40 mg arm vs. atorva 80 mg arm
[7] = mITT Population, Comparison 4: mAb316P + atorva 40 mg arm vs. rosuva 40 mg arm
[8] = mITT Population, Comparison 5: mAb316P + atorva 40 mg arm vs. EZE + atorva 40 mg arm

## mAb316P: human anti-PCSK9 antibody; heavy chain SEQ ID NO:5, light chain SEQ ID NO:9
[1]; [3]
  Delta, percent change from baseline of Apo B to week 24: −27.6%
  Delta, percent change from baseline of Apo-B to week 12: −15.9%
  Delta, percent change from baseline of HDL-C to week 24: 5.6%
  Delta, percent change from baseline of Lp(a) to week 24: −31.0%
  Delta, percent change from baseline of Non-HDL-C to week 12: −14.8%
  Delta, percent change from baseline of Total-C to week 12: −9.8%
  Delta, percent change from baseline of Total-C to week 24: −18.4%
  Delta, percent change from baseline of calculated LDL-C to week 12: −20.9%
  Delta, percent change from baseline of calculated LDL-C to week 24: −31.4%
  Delta, percent change from baseline of non-HDL-C to week 24: −26.6%
  Odds Ratio, proportion of patients reaching calculated LDL-C < 70 mg/dL at Week 24: 9.9
  Odds Ratio, proportion of very high CV risk patients reaching calculated LDL-C < 70 mg/dL or high CV risk patients reaching calculated LDL-C < 100 mg/dL at Week 24: 7.9
[1]; Week 24, calculated LDL-C, across atorvastatin 20 mg and 40 mg regimens
  patients achieving the more stringent LDL-C goal of <70 mg/dL: 77-79%
[1]; atorvastatin 20 mg regimen, add-on ezetimibe or doubling of atorvastatin dose
  reduced LDL-C levels by: 44.1%
[1]; atorvastatin 40 mg regimen, add-on ezetimibe, doubling of atorvastatin dose or switch to rosuvastatin 40 mg
  reduced LDL-C levels by: 54.0%
[1]; [4]
  Delta, percent change from baseline of Apo B to week 24: −32.6%
  Delta, percent change from baseline of calculated LDL-C to week 12: −44.5%
  Delta, percent change from baseline of calculated LDL-C to week 24: −42.5%
  Delta, percent change from baseline of non-HDL-C to week 24: −33.0%
  Odds Ratio, proportion of patients reaching calculated LDL-C < 70 mg/dL at Week 24: 28.8
  Odds Ratio, proportion of very high CV risk patients reaching calculated LDL-C < 70 mg/dL or high CV risk patients reaching calculated LDL-C < 100 mg/dL at Week 24: 24.6
[1]; [5]
  Delta, percent change from baseline of Apo B to week 24: −25.1%
  Delta, percent change from baseline of calculated LDL-C to week 12: −26.6%
  Delta, percent change from baseline of calculated LDL-C to week 24: −24.9%
  Delta, percent change from baseline of non-HDL-C to week 24: −22.4%
  Odds Ratio, proportion of patients reaching calculated LDL-C < 70 mg/dL at Week 24: 4.8
  Odds Ratio, proportion of very high CV risk patients reaching calculated LDL-C < 70 mg/dL or high CV risk patients reaching calculated LDL-C < 100 mg/dL at Week 24: 5.0
[1]; [6]
  Delta, percent change from baseline of Apo B to week 24: −38.3%
  Delta, percent change from baseline of calculated LDL-C to week 12: −36.3%
  Delta, percent change from baseline of calculated LDL-C to week 24: −52.8%
  Delta, percent change from baseline of non-HDL-C to week 24: −43.6%
  Odds Ratio, proportion of patients reaching calculated LDL-C < 70 mg/dL at Week 24: 162.1
  Odds Ratio, proportion of very high CV risk patients reaching calculated LDL-C < 70 mg/dL or high CV risk patients reaching calculated LDL-C < 100 mg/dL at Week 24: 130.8
[1]; [7]
  Delta, percent change from baseline of Apo B to week 24: −29.8%
  Delta, percent change from baseline of calculated LDL-C to week 12: −27.7%
  Delta, percent change from baseline of calculated LDL-C to week 24: −35.0%
  Delta, percent change from baseline of non-HDL-C to week 24: −32.1%
  Odds Ratio, proportion of patients reaching calculated LDL-C < 70 mg/dL at Week 24: 19.8
  Odds Ratio, proportion of very high CV risk patients reaching calculated LDL-C < 70 mg/dL or high CV risk patients reaching calculated LDL-C < 100 mg/dL at Week 24: 8.5
[1]; [8]
  Delta, percent change from baseline of Apo B to week 24: −26.4%
  Delta, percent change from baseline of calculated LDL-C to week 12: −20.2%
  Delta, percent change from baseline of calculated LDL-C to week 24: −33.4%
  Delta, percent change from baseline of non-HDL-C to week 24: −27.3%
  Odds Ratio, proportion of patients reaching calculated LDL-C < 70 mg/dL at Week 24: 13.9
  Odds Ratio, proportion of very high CV risk patients reaching calculated LDL-C < 70 mg/dL or high CV risk patients reaching calculated LDL-C < 100 mg/dL at Week 24: 10.8
[2]
  TEAE influenza: 4 patients
  TEAE upper respiratory tract infection: 6 patients
  TEAE urinary tract infection: 4 patients

— patent publication US20150231236A1, “METHODS FOR TREATING PATIENTS WITH HYPERCHOLESTEROLEMIA THAT IS NOT ADEQUATELY CONTROLLED BY MODERATE-DOSE STATIN THERAPY” (Regeneron Pharmaceuticals, Inc., priority 2014, published 2015)
